Literature values, collected in patent US8685449B2, “Pharmaceutical composition with anti-obesity activity comprising a premixture of pure orlistat and preparation process” (Laboratorios Bago S.A., priority 2010, dated 2014).

Conditions: particularly in a wet environment and at a temperature above 35° C., and inclusive in a dry environment

In the case of `CCCCCCCCCCC[C@@H](C[C@@H]1OC(=O)[C@H]1CCCCCC)OC(=O)[C@H](CC(C)C)NC=O` [orlistat, (−) tetrahydrolipstatin], the “stability (hydrolisis and thermal degradation)” value is listed as “susceptible to hydrolisis and thermal degradation”.
